Columns and labels:
Integrin alpha-V/beta-5 = Integrin alpha-V/beta-5 (Homo sapiens, UniProt P06756+P18084); assay: Displacement of [125I]Echistatin from human placental integrin alpha-V-beta-5 receptor
Integrin alpha-V/beta-3 = Integrin alpha-V/beta-3 (Homo sapiens, UniProt P05106+P06756); assay: Displacement of [125I]echistatin from human placental integrin alphaVbeta3 receptor
Integrin alpha-V/beta-3, sequence (P05106 27-788 limits assumed): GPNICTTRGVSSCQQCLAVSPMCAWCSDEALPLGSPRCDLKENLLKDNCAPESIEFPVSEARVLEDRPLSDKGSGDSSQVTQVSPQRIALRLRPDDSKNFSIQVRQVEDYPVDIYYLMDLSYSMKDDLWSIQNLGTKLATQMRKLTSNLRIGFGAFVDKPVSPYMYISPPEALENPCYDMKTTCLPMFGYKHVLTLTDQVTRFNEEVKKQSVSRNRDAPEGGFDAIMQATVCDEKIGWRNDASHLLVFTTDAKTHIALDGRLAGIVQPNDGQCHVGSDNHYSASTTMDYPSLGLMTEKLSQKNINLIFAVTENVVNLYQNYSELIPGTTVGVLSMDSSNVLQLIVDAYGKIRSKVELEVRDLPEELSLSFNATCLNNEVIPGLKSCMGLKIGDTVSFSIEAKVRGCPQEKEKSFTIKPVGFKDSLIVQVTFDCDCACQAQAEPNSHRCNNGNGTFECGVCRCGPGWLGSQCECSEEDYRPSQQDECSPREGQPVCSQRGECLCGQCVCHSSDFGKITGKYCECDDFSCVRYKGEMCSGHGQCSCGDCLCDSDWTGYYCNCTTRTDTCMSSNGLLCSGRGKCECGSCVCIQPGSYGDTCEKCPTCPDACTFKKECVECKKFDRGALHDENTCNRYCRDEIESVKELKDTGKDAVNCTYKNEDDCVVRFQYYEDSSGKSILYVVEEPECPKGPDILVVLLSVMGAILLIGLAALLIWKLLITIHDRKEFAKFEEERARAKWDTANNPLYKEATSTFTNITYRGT
Integrin alpha-V/beta-3, sequence (P06756 31-889 limits assumed): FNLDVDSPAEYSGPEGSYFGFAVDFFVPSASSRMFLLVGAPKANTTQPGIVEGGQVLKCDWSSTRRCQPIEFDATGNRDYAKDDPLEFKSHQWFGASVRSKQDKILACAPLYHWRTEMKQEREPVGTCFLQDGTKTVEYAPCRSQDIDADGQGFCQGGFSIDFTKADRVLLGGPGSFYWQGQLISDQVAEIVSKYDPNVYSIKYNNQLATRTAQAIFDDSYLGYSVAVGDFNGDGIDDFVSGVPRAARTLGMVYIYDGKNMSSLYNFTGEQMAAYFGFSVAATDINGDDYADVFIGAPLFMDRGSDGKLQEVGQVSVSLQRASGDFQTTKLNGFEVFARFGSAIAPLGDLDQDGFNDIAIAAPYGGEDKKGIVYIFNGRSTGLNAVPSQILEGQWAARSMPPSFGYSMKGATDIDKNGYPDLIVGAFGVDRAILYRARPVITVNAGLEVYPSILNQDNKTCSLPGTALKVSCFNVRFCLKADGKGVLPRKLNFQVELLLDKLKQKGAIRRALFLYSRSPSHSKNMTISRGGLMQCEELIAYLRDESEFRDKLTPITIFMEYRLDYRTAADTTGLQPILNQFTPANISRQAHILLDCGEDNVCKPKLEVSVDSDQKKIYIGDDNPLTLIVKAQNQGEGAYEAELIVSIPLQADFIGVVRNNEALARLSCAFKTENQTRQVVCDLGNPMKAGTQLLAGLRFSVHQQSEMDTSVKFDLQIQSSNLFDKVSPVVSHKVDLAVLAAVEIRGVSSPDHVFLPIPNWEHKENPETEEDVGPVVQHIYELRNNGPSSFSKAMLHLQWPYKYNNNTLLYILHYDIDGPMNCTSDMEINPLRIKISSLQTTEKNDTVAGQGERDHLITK
Integrin alpha-V/beta-3, sequence (P06756 891-1048 limits assumed): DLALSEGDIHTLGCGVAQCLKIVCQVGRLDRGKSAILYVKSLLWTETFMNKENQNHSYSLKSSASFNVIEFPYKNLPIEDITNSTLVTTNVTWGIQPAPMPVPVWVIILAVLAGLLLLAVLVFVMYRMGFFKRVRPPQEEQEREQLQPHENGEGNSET

Integrin alpha-V/beta-5, sequence (P06756 31-889 limits assumed): as the sequence (P06756 31-889 limits assumed) above
Integrin alpha-V/beta-5, sequence (P06756 891-1048 limits assumed): as the sequence (P06756 891-1048 limits assumed) above
Integrin alpha-V/beta-5, sequence (P18084 24-799 limits assumed): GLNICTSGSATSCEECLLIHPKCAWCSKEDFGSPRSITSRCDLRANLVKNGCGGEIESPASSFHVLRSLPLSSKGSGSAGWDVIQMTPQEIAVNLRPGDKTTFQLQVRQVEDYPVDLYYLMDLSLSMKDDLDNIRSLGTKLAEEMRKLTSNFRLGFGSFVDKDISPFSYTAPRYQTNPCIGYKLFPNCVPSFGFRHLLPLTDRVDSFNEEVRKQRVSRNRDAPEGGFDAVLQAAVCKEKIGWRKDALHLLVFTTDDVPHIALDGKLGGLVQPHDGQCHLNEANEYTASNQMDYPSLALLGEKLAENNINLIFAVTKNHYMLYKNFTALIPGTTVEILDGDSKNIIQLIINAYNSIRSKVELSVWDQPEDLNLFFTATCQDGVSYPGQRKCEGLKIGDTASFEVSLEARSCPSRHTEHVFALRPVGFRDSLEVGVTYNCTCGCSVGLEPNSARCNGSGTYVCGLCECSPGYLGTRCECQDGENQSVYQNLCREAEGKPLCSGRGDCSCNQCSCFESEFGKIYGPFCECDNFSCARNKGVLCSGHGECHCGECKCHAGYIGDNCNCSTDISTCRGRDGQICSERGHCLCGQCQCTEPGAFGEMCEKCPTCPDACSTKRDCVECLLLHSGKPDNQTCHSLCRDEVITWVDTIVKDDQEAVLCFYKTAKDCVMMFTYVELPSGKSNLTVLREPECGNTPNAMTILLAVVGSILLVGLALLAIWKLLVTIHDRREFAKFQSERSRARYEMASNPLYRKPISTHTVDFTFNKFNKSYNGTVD

IC50 (Integrin alpha-V/beta-5) | IC50 (Integrin alpha-V/beta-3) | SMILES
7960 nM | 2150 nM | NC(N)=NCCC[C@@H]1NC(=O)[C@]23CCCN2C(=O)[C@@H](C3)NC(=O)[C@H](CC(=O)O)NC(=O)CNC1=O
14.3 nM | 34.4 nM | N=C(N)NCCC[C@@H]1NC(=O)[C@@]23CCCN2C(=O)[C@H](C3)NC(=O)[C@H](CC(=O)O)NC(=O)CNC1=O
